The values below come from patent publication US11385234B2, “Methods and systems for detecting an analyte or classifying a sample” (Commonwealth Scientific and Industrial Research Organisation, priority 2012, dated 2022).

The target in one assay is GFP^2—MBP—RLuc2 (Escherichia coli, UniProt P0AEX9). As to the kind of experiment: BRET^2 tagged MBP sugar assay, plate reader. Format: binding. The conditions noted are these: 0.1 mM maltose. As to the method:
1 μM purified protein was used for all the energy transfer assays (final volume of 100 μL). […] Purified protein was incubated with the sugar dissolved in double deionised water or water for 30 minutes at 28° C.
(§1) BRET ratios were calculated as the ratio of maximum acceptor emission intensity to maximum donor emission intensity.
All data analysis was carried out using GraphPad Prism (version 5 for Windows, Graphpad Software, San Diego, Calif., USA). All data will be reported as means± standard deviation (SD) unless otherwise stated in the text. Two-tailed unpaired t-tests will be performed using Graphpad prism. Statistical significance is defined as p<0.05.
(In general: BRET reads energy transfer from a luciferase to a nearby fluorophore.)

A further assay relates to GFP^2—MBP—RLuc2 W140A. In words: BRET^2 tagged MBP W140A mutant, plate reader. The assay is classed as binding. The conditions noted are these: 0.1 mM maltose. The procedure: The W140 mutation was introduced into pRSET GFP^2—MBP—RLuc2 using site-directed mutagenesis (Stratagene) using primers C1 ([…]) (SEQ ID NO:11) and C2 ([…]) (SEQ ID NO:12). Nucleotide and amino acid sequences for BRET^2 tagged MBP receptor provided a SEQ ID NOs: 3 to 6).
1 μM purified protein was used for all the energy transfer assays (final volume of 100 μL). 1 μM purified protein was prepared by diluting the protein in phosphate buffer solution (PBS, 0.058 M […], 0.017 NaH2PO4, 0.068 M NaCl (pH 7.4)). Purified protein was incubated with the sugar dissolved in double deionised water or water for 30 minutes at 28° C. Following incubation 16.67 μM coelenterazine 400a was added and the signal was recorded immediately.
as §1

Assay [1] addresses T1, FLIPmal-2μ (FRET tagged MBP receptor) (Escherichia coli, UniProt P0AEX9).
T1 construct: fused on or other part: FRET pair fused to the N- and C-terminus of MBP; From Fehr et al. 2002 these are a cyan and a yellow GFP variant
As to conditions: cited from earlier work.

Assay [2] relates to SGSR-113 (BRET^2 tagged str-113). As to the kind of experiment: BRET^2 response of SGSR-113 to volatile ligands, plate based. The assay is classed as biochemical, C. elegans. From the text:
(§2) SGSRs are chimaeras of C. elegans str-112, str-113, str-114, str-115, str-116 and str-114/113 with the BRET^2 tags GFP^2 and RLuc or RLuc2 inserted in the third intracellular loop and at the C-terminus, respectively. The positions of the third intracellular loops of STR proteins were predicted using “TMAP” an algorithm from “The Biology Workbench” (a web-based tool for prediction of transmembrane segments http.//seqtool.sdsc.edu). These were named SGSR-112, SGSR-113, SGSR-114/113, SGSR-114, SGSR-115 and SGSR-116.
(§3) Except for SGSR-112, which was commercially synthesised, SGSR expression cassettes were designed and made by introducing multiple restriction sites into the relevant gene-specific PCR primers. PCR products containing those sites were cloned into TOPO PCR vectors (Invitrogen) and then digested with the corresponding restriction enzymes (REs) and ligated into the expression cassettes.
(§4) The inventors selected a number of specific volatiles (including 1-hexanol, 1 butanol, butane-2,3-dione, 3-hydroxybutanone, 2-pentanone and 2 nonanone) for further testing based on GC-MS analysis of the headspace of OP50 bacteria grown on LB. […] This is the first time that a volatile ligand (or indeed any ligand) has been identified for a BRET-based GPCR sensor, in the absence of prior knowledge of the ligand based on research with the unmodified parental GPCR.

Assay [3] has as its target SGSR-112 (BRET^2 tagged str-112) (Caenorhabditis elegans, UniProt O16913). As to the kind of experiment: BRET^2 response of SGSR-112 to volatile ligands, plate based. Format: biochemical, C. elegans.
Excerpt: as §2, §3, §4

Assay [4] relates to SGSR-114/113 (BRET^2 tagged str-114/113 chimera). In words: BRET^2 response of SGSR-114/113 to volatile ligands, plate based. The assay is classed as biochemical, C. elegans. The conditions noted are these: for detectable level: in vitro.
Excerpt: as §2, §3
The SGSR 114/113 chimera was constructed by modifying C. elegans SGSR-113 (by replacing the first fragment of str-13, 113-1 using the restriction sites NcoI and BspEI in the cassette with the corresponding fragment of str-114, str-114-1). Str114-1 contains the first 720 str-114 nucleotides of, corresponding to its first 240 amino acids and was amplified by high fidelity PCR using primers incorporating the restriction sites, NcoI at the 5′ end and BspEI at the 3′ end.
as §4

Assay [5] has as its system OGOR2. As to the kind of experiment: Endpoint on-chip microfluidic diacetyl assay with OGOR2. Format: biochemical, C. elegans. As to the method: Endpoint microfluidic assays were carried out on-chip in two inlet microfluidic mixer devices integrated with an optical detection chamber. […] OGOR and OGOR2 membrane pellets were resuspended in 1 mL of PBS, diluted as required and incubated at 28° C. for 45 minutes with diacetyl solution at concentrations ranging from 1 aM-1 μM. The preparation was introduced in the second inlet. On-chip mixing was initiated with an input flow rate of 400 μl/hr for each inlet.
(§5) BRET^2 signals were calculated as the ratio of emission intensity at 515 nm to that at 410 nm. All data are reported as the mean±standard deviation (SD) or mean±standard error of the mean (SEM) as described in the text. Curves were fitted with log [agonist] vs response curves with variable slopes following normalization of data, using Graphpad Prism version 5.03 for Windows. Two-tailed unpaired t-tests were carried out in Graphpad prism. Statistical significance was defined as p<0.05.

Assay [6] concerns OGOR2 (ODR-10 receptor fused to RLuc2 and GFP^2). In words: Diacetyl assay with OGOR2, 96-well plate BRET^2. The assay is classed as biochemical, C. elegans. From the text:
(§6) Chimaeric BRET^2 tagged odorant receptors have the BRET^2 components inserted into the third intracellular loop (IC3) and at the C-terminus of the C. elegans odorant receptor with green fluorescent protein, GFP^2 at IC3 and Renilla luciferase, RLuc at the C-terminus of the protein (OGOR). Using site-directed mutagenesis the RLuc2 mutations were introduced into the pYES-DEST-52 OGOR sequence. Primers 1 and 2 (Table 3) were used to introduce the mutation C124A and primer pair 3 and 4 was used to introduce the M185 V mutation to make the construct named OGOR2 (FIG. 18, SEQ ID NO:1, SEQ ID NO-2).
Yeast colonies were inoculated in 10 mL SCMM-U (S. cerevisiae minimal media, composition per 200 mL: 1.34 g […] without amino acids and 0.38 g yeast supplementation media without uracil) supplemented with 2% glucose and incubated overnight at 28° C. An aliquot of the overnight culture was used to inoculate SCMM-U supplemented with 2% raffinose and 2% galactose to a final O.D..600 of 0.4 and incubated for an additional 72 h at 15° C. with shaking at 200 rpm.
Cell cultures were centrifuged at 1500×g for 5 minutes at 4° C. Cells were resuspended in 1 mL of sterile water and centrifuged for 1 minute at 10,000×g. Cells were resuspended in 4 mL phosphate buffer solution (PBS). The cells were lysed by French press (˜18000 psi) and cellular debris was removed by centrifugation at 15000×g (4° C.) for 15 minutes. Following this the supernatant fraction was centrifuged at 40,000 rpm (Beckman Coulter L-80 ultra-centrifuge) for 1 hour at 4° C. The supernatant was decanted and the membrane pellet was resuspended in 1 mL of PBS and stored at 4° C. for 48 hrs.
All ligand solutions were prepared directly in water. The OGOR concentration was normalized using GFP^2 intensity at 510 nm. Assays were carried out in 96-well plates (Perkin-Elmer) in a total volume of 100 μL in phosphate buffered saline. OGOR was incubated with each ligand for 45 minutes at 28° C. in wells sealed with Topseal-A™ (Packard). […]
BRET^2 signals were calculated as the ratio of emission intensity at 515 nm to that at 410 nm. […]

The subject of assay [7] is OGOR2. In words: Diacetyl detection with highly diluted OGOR2, wide bore chamber and liquid light guide. As to conditions: 1 μM diacetyl. The assay is classed as biochemical, C. elegans. As to the method: On-chip measurements were carried out with a microfluidic chip similar to that shown in FIG. 31A with two inlets, a passive mixing element and a detection chamber. An aluminium mirror was placed on top of the reaction chamber to enhance the BRET signal.
A number of variations were compared with the original set up (FIG. 31A). The diameter of the reaction chamber was increased to 4 mm (FIG. 34A) from an original diameter of 2 mm. The height of the reaction chamber was varied between 1 and 2 mm. A single optical fiber of diameter 0.4-1.0 mm (FIG. 31A) was replaced with a liquid light guide or fibre-optic bundle of 5 mm core diameter NA=0.59, feeding into a dichroic block (FIG. 34A), or a bifurcated light guide of trunk core diameter 6 mm branch core diameter of 4 mm (FIG. 37) or a multifurcated light guide of trunk core diameter 8 mm and branch core diameter 4 mm (FIGS. 38 and 40).
OGOR2 sensor solution was prepared at day 4 in PBS at high (100 and 50 times) dilution ratios from stock solution. Clz400a was prepared in PBS at 31.25 μM. When diacetyl was included, it was added to the OGOR2 sensor solution at a final concentration of 1 μM. For the control experiment, only DI water was added. The sensor tubes without and with diacetyl were both incubated at 28° C. in 30 min.

The subject of assay [8] is OGOR2. In words: Real-time on-chip microfluidic diacetyl assay with OGOR2. Format: biochemical, C. elegans. As to conditions: 1 fM diacetyl, 290 nM protein, 12.5 μM substrate, flow rates 50, 100, 200 and 300 μl/hr. The procedure:
On-chip real-time measurements were carried out in a three-inlet microfluidic mixer device integrated with an optical detection chamber. […] The second inlet contained diacetyl (2,3-butanedione) diluted to give a final concentration of 1 fM in PBS, or PBS only as a control. The third inlet was used to introduce sensor protein suspension, which was prepared by resuspending the membrane pellet describe above in 1 mL of PBS and further diluting as required. The on-chip mixing was initiated by using input flow rates ranging from 50-400 μl/hr.
as §5

In another assay the test system is OGOR. As to the kind of experiment: Diacetyl assay with original OGOR sensor (native RLuc), microwell. The assay is classed as biochemical, C. elegans. The conditions noted are these: original OGOR sensor incorporating native RLuc.
Excerpt: as §6
All ligand solutions were prepared directly in water. The OGOR concentration was normalized using GFP^2 intensity at 510 nm. Assays were carried out in 96-well plates (Perkin-Elmer) in a total volume of 100 μL in phosphate buffered saline. OGOR was incubated with each ligand for 45 minutes at 28° C. in wells sealed with Topseal-A™ (Packard).
Following the incubation, Coelenterazine 400a substrate (Biosynth) was added to a final concentration of 5 μM.
BRET^2 signals were calculated as the ratio of emission intensity at 515 nm to that at 410 nm. All data are reported as the mean±standard deviation (SD) or mean±standard error of the mean (SEM) as described in the text. […]

SMILES strings stand for the structures.

SGSR-112 (BRET^2 tagged str-112), sequence (O16913 entry or part of it): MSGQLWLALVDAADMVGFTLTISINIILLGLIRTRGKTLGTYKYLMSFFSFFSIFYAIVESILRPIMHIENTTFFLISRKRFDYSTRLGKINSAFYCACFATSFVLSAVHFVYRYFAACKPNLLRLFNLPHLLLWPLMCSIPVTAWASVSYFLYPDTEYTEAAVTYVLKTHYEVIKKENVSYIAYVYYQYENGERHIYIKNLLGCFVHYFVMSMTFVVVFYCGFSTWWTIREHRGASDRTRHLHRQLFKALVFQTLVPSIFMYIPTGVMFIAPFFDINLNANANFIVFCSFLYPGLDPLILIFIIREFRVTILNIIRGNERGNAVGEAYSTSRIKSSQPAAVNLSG

For `OC[C@H]1O[C@H](O[C@H]2[C@H](O)[C@@H](O)C(O)O[C@@H]2CO)[C@H](O)[C@@H](O)[C@@H]1O` (mixture of isomers) [maltose], the “incubation time at which BRET^2 response reached a maximum” value at GFP^2—MBP—RLuc2 came to 30 min. For the same compound, in the assay on GFP^2—MBP—RLuc2 W140A, the “BRET^2 response to maltose” value is given as “abolished”. Besides, in assay [1] (Fehr et al., 2002), the “signal change, FRET” value is around 12%. Also, the “linear range of FRET response” value in assay [1] (two log units) was 0.26 to 21.12 µM.
Take `CCCCCCO` [1-hexanol]: the detectable level result in assay [2] (in vitro) was “parts per billion (nM) levels”.
On to `CCCC(C)=O` [2-pentanone], for which the “BRET^2 response to volatile ligand” value in [2] (1 μM of odorant), in assay [3] (1 μM of odorant) and in [4] (1 μM of odorant) was “tested positive” in each case. In assay [3], this compound came in with an EC50 of 0.15 nM. Also, in assay [4], the detectable level entry is given as “parts per billion levels (nM) levels”.
Consider `CC(=O)C(C)=O` [diacetyl, 2,3-butanedione], for which the “decrease in BRET^2 signal” value was 36.9% in the assay on OGOR2 [5] (10 fM diacetyl, microfluidic endpoint) and 21.4% in [6] (1 μM diacetyl, microplate wells). For the same compound, the EC50 was around 10 aM in the assay with OGOR2 [5] (on-chip microfluidic endpoint) and 11.4 aM in assay [6] (microwell plate). Further, the “linear range of dose-dependent response” value in assay [6] (microwell plate, six log units) is given as 10^−18 to 10^−12 M. In addition, the “Diacetyl-dependent reduction in BRET^2 ratio” value in the assay with OGOR2 [7] (50 times sensor dilution) stood at 14.7%; in the assay on OGOR2 [7] (100 times sensor dilution), 13.7%. Further, the “decrease in BRET^2 ratio” value in the assay on OGOR2 [8] was 27.4%. For the same compound, the “percentage change in BRET^2 signal in response to diacetyl” value in the assay with OGOR is 32%. Moreover, the detectable level result in [4] is on record as “parts per quadrillion (sub pM) levels”.
